Experimental data reported in patent US11786492B2, “Therapeutic agent for phosphodiesterase inhibition and its related disorders” (Novalead Pharma Inc, priority 2017, dated 2023).
Marks after values point to notes of the source that are not given here.

Key:
PDE1 (Bovine brain) = assay: Radiolabeled enzyme assay PDE1; format: biochemical; details: 1.01 μM [3H]cAMP+cAMP
Method: (§1) Enzyme assays have been optimized for incubation time, substrate concentration and method of end-product determination.

PDE2A = PDE2A (Homo sapiens, UniProt O00408); assay: Fluorescence polarization assay PDE2A; format: biochemical; details: substrate cGMP
PDE2A, sequence (O00408 whole entry, species assumed): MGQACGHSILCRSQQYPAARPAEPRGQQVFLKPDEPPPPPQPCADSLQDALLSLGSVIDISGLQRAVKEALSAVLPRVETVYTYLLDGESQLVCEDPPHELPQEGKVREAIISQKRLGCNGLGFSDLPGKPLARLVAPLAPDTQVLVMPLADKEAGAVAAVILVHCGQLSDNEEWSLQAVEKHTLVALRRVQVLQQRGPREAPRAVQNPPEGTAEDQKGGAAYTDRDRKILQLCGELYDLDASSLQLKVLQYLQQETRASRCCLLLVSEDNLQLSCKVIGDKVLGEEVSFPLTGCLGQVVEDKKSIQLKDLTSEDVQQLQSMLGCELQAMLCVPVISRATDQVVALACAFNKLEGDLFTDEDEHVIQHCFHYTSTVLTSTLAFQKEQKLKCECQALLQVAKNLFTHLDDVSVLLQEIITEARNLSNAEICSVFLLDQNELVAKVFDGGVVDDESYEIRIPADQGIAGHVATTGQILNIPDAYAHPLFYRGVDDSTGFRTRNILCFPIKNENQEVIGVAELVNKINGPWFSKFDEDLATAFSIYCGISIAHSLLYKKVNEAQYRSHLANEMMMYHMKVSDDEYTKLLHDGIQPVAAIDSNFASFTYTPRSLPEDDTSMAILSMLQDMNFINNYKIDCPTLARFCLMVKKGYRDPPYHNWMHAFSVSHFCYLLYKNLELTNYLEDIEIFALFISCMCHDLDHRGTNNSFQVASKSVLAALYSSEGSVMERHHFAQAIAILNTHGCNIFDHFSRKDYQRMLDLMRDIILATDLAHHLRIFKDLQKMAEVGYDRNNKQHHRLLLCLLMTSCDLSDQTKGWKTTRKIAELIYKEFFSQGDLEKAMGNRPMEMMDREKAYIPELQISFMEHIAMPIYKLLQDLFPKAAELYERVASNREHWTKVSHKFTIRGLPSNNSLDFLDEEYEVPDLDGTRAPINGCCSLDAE
Method: (§2) An experiment to check inhibition of various subtypes of the target Phosphodiesterase (PDE) enzyme in in-vitro assay was performed. […] PDE1A, PDE2A, PDE4A, PDE4B, PDE4C, PDE4D, PDE5A, PDE7A, PDE9A, PDE10A.

PDE5 (Human platelets) = biological target: T1, PDE5 (Human platelets) (Homo sapiens, UniProt O76074); assay: Radiolabeled enzyme assay PDE5; format: biochemical; details: read-out: % inhibition at 30 μM, 1.01 μM [3H]cGMP+cGMP
T1 construct: PDE5 (Human platelets); from tissue; host or cells: human platelets
Method: as §1

PDE4 (Human U937 cells) = assay: Radiolabeled enzyme assay PDE4; format: biochemical; details: 1.01 μM [3H]cAMP+cAMP
Method: as §1

Human IL-22 = assay: IL-22 release from stimulated PBMCs, ELISA; format: cell-based; details: PMA+Ionomycin, 18 hrs
Method: (§3) Fresh human blood from healthy volunteer was collected in anticoagulant (5 mM) ethylene diamine tetra acetic acid (EDTA) containing tubes. The growth medium used was RPMI-1640 medium (with 3% FBS) and incubated at 37° C. for 60 mins in a 5% CO2 incubator with vehicle used as 1% DMSO. The cell viability was checked at various time points using Alamar blue and fluorescence readings were taken at excitation of 544 nm and emission of 590 nm.
(§4) PBMCs were stimulated with different stimulators as follows: • a. Cells were exposed to stimulator LPS at 100 ng/mL for 18 hrs to stimulate TNF-α, IL-6, IFN-γ, IL10, IL-1β • b. Cells were exposed to stimulator IFN-γ+LPS at 100 ng/mL+1 μg/mL for 18 hrs to stimulate IL-12 • c. Cells were exposed to stimulator PMA+Ionomycin at 50 ng/mL+1 μg/mL for 18 hrs to stimulate IL-23, IL-22, IL-17A, IL-17F
(§5) After 18 hrs supernatants were collected and centrifuged to remove any cell debris and aliquots were used for ELISA.

PDE2 (Human platelets) = biological target: T2, PDE2 (Human platelets) (Homo sapiens, UniProt O00408); assay: Radiolabeled enzyme assay PDE2; format: biochemical; details: read-out: % inhibition at 30 μM, 1.01 μM [3H]cAMP+cAMP
T2 construct: PDE2 (Human platelets); from tissue; host or cells: human platelets
T2 sequence (O00408 whole entry): as the sequence (O00408 whole entry, species assumed) above
Method: as §1

Human IL-6 = assay: IL-6 release from stimulated PBMCs, ELISA; format: cell-based; details: LPS 100 ng/mL, 18 hrs
Method: as §3, §4, §5

Human TNF-α = assay: TNF-α release from stimulated PBMCs, ELISA; format: cell-based; details: LPS 100 ng/mL, 18 hrs
Method: as §3, §4, §5

PDE3 (Human platelets) = biological target: T3, PDE3 (Human platelets) (Homo sapiens, UniProt Q14432); assay: Radiolabeled enzyme assay PDE3; format: biochemical; details: read-out: % inhibition at 30 μM, 1.01 μM [3H]cAMP+cAMP
T3 construct: PDE3 (Human platelets); from tissue; host or cells: human platelets
T3 sequence (Q14432 whole entry): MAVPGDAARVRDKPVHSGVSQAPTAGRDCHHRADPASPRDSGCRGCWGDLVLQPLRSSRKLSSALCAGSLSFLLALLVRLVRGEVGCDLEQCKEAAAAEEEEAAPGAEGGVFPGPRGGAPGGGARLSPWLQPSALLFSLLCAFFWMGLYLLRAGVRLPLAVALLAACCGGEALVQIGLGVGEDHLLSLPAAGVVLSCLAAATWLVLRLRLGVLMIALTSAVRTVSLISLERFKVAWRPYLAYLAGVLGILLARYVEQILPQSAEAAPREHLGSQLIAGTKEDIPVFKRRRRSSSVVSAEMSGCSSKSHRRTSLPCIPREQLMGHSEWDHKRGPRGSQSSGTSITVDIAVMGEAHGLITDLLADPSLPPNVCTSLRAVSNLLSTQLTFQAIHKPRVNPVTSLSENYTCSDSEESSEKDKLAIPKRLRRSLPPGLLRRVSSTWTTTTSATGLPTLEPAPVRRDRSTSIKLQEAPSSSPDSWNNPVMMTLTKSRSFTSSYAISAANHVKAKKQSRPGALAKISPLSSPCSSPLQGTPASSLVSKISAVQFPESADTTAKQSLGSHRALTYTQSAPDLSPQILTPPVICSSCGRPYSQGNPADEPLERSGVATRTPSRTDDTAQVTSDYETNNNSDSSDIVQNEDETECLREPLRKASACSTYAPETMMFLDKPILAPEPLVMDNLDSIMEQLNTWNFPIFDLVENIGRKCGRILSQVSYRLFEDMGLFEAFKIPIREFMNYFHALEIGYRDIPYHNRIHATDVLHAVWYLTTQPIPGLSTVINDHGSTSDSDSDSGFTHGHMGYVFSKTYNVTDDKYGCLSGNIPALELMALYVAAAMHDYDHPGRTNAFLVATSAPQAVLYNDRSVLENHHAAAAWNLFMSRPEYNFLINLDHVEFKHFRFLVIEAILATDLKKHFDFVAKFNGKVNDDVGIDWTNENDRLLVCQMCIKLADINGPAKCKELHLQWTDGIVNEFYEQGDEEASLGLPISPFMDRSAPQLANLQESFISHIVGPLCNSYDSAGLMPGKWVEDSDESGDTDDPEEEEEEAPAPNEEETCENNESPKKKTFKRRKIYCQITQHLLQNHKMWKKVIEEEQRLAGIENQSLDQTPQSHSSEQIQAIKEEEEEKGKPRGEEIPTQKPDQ
Method: as §1

[1] = test system: Imiquimod induced psoriasis in BALB/c mice; assay: Imiquimod induced psoriasis model in Balb/c mice; details: for % inhibition of Ear inflamn. / Histopathology Scores Epidermal Thickness / Histopathology Scores Hyperkeratosis / Histopathology Scores Rete Peg Prolifern. / PASI score / Spleen weight / IL23 Levels (pg/ml): twice daily; for IL23 Levels (pg/ml): ear tissue lysate
Method: BALB/c mice (Sex: Female, Age: 7-8 Weeks) were used for induction of psoriasis using IMQ. Topical application of imiquimod (IMQ) in mice can induce and exacerbate psoriasis closely resembling human psoriasis. […] 3%, 4% and 5% and positive control of Tenovate (Clobetasol) 0.05% cream. In all 63 mg cream containing 5% of IMQ was applied to dorsal area (shaved back) and right ear for 8 days. Topical formulations from Example 7 were used during this experiment.
The parameters investigated were ear thickness change, % inhibition of ear inflammation, Psoriatic Area Severity Index (PASI). Histopathology was performed of right ear and dorsal skin by H & E staining. The biomarker in this study was inflammatory cytokine IL-23 analyzed by ELISA obtained from tissue lysate of ear region where IMQ and doses were applied.

PDE7A = PDE7A (Homo sapiens, UniProt Q13946); assay: Fluorescence polarization assay PDE7A; format: biochemical; details: substrate cAMP
PDE7A, sequence (Q13946 whole entry, species assumed): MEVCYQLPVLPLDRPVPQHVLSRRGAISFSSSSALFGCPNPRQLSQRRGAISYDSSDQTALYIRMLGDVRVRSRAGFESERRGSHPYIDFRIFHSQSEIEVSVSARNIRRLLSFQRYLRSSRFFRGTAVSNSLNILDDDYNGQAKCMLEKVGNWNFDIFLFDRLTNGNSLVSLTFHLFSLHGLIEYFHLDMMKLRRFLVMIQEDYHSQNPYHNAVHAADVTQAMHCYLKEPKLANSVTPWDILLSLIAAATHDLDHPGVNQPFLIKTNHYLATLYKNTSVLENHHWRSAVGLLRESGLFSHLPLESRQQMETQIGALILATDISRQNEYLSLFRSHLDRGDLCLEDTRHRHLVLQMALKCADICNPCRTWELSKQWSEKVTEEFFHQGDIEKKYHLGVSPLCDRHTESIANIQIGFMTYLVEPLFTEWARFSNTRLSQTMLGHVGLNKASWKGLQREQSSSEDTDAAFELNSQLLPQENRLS
Method: as §2

PDE5A = PDE5A (Homo sapiens, UniProt O76074); assay: Fluorescence polarization assay PDE5A; format: biochemical; details: substrate cGMP
Method: as §2

PDE4C = PDE4C (Homo sapiens, UniProt Q08493); assay: Fluorescence polarization assay PDE4C; format: biochemical; details: substrate cAMP
PDE4C, sequence (Q08493 whole entry, species assumed): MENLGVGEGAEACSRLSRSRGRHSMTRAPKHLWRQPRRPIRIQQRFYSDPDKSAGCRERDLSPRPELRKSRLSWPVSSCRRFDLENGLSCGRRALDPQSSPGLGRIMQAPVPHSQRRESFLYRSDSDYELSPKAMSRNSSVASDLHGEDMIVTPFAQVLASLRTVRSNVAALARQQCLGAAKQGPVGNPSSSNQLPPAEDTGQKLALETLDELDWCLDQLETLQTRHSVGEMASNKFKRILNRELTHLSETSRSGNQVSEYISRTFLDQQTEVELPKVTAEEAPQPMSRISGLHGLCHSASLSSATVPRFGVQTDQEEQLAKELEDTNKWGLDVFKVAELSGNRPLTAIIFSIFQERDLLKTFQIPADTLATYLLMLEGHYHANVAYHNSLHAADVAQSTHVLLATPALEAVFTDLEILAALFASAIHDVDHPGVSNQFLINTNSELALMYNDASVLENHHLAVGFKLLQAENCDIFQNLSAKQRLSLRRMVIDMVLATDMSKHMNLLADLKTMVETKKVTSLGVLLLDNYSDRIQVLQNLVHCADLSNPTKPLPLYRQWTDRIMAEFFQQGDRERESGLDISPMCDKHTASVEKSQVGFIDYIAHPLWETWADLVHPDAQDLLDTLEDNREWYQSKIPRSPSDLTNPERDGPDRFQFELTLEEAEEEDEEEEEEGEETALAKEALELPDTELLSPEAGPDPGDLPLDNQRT
Method: as §2

SMILES: CC(=O)Oc1ccccc1C(=O)Nc1ncc([N+](=O)[O-])s1 [Nitazoxanide]
- % inhibition at 30 μM (PDE1 (Bovine brain)): 18%
- IC50 (PDE2A): 67.5 µM
- inhibition at 30 µM (PDE5 (Human platelets)): 9%
- % inhibition at 30 μM (PDE4 (Human U937 cells)): 89%
- Human IL-22 concentration (Human IL-22; 1 μM): 5612 pg/mL
- Human IL-22 concentration (Human IL-22; 10 μM): 1093 pg/mL
- Human IL-22 concentration (Human IL-22; 25 μM): 228 pg/mL
- Human IL-22 concentration (Human IL-22; 50 μM): 0 pg/mL
- inhibition at 30 µM (PDE2 (Human platelets)): 13%
- Human IL-6 concentration (Human IL-6; 1 μM): 5520 pg/mL
- Human IL-6 concentration (Human IL-6; 10 μM): 5342 pg/mL
- Human IL-6 concentration (Human IL-6; 25 μM): 3567 pg/mL
- Human IL-6 concentration (Human IL-6; 50 μM): 2531 pg/mL
- Human TNF-α concentration (Human TNF-α; 1 μM): 5708 pg/mL
- Human TNF-α concentration (Human TNF-α; 10 μM): 3472 pg/mL
- Human TNF-α concentration (Human TNF-α; 25 μM): 3679 pg/mL
- Human TNF-α concentration (Human TNF-α; 50 μM): 2896 pg/mL
- inhibition at 30 µM (PDE3 (Human platelets)): -4%
- % inhibition of Ear inflamn. ([1]; 3% topical): −5.9%
- Histopathology Scores Epidermal Thickness ([1]; 3% topical): 5.6 ± 0.4
- Histopathology Scores Hyperkeratosis ([1]; 3% topical): 1.0 ± 0.0^$
- Histopathology Scores Rete Peg Prolifern. ([1]; 3% topical): 1.2 ± 0.2
- PASI score ([1]; 3% topical): 14.2 ± 5.1
- Spleen weight ([1]; 3% topical, Day 9): 203.6 ± 22.6 mg
- IL23 Levels (pg/ml) ([1]; 3% topical): 147.79^# pg/ml
- % inhibition of Ear inflamn. ([1]; 4% topical): 26.1%
- Histopathology Scores Epidermal Thickness ([1]; 4% topical): 4.7 ± 0.3
- Histopathology Scores Hyperkeratosis ([1]; 4% topical): 1.3 ± 0.2
- Histopathology Scores Rete Peg Prolifern. ([1]; 4% topical): 1.0 ± 0.3
- PASI score ([1]; 4% topical): 21.5 ± 3.4
- Spleen weight ([1]; 4% topical, Day 9): 274.7 ± 54.3 mg
- IL23 Levels (pg/ml) ([1]; 4% topical): 128.67* pg/ml
- % inhibition of Ear inflamn. ([1]; 5% topical): 40.9%
- Histopathology Scores Epidermal Thickness ([1]; 5% topical): 5.3 ± 0.6
- Histopathology Scores Hyperkeratosis ([1]; 5% topical): 1.1 ± 0.1
- Histopathology Scores Rete Peg Prolifern. ([1]; 5% topical): 1.1 ± 0.1
- PASI score ([1]; 5% topical): 13.1 ± 1.6
- Spleen weight ([1]; 5% topical, Day 9): 204.1 ± 15.3 mg
- IL23 Levels (pg/ml) ([1]; 5% topical): 89.45* pg/ml
- Spleen weight vs disease control (in words) ([1]; Niclosamide 2%, Nitazoxanide 3% and 5%, Clobetasol 0.05%, Day 9): marginal reduction in spleen weight
- IL-23 level in ear tissue homogenates (in words) ([1]; different doses): reduction of IL-23 level
- Hyperkeratosis (in words) ([1]; ear lobe histopathology): significant reduction in Hyperkeratosis

SMILES: O=C(Nc1ncc([N+](=O)[O-])s1)c1ccccc1O [Tizoxanide]
- IC50 (PDE7A): 134 µM
- IC50 (PDE5A): 136 µM
- IC50 (PDE4C): 366 µM
- IC50 (PDE2A): 12 µM
- Human IL-22 concentration (Human IL-22; 1 μM): 7858 pg/mL
- Human IL-22 concentration (Human IL-22; 10 μM): 1189 pg/mL
- Human IL-22 concentration (Human IL-22; 25 μM): 280 pg/mL
- Human IL-22 concentration (Human IL-22; 50 μM): 0 pg/mL
- Human IL-6 concentration (Human IL-6; 1 μM): 6122 pg/mL
- Human IL-6 concentration (Human IL-6; 10 μM): 5225 pg/mL
- Human IL-6 concentration (Human IL-6; 25 μM): 3428 pg/mL
- Human IL-6 concentration (Human IL-6; 50 μM): 2086 pg/mL
- Human TNF-α concentration (Human TNF-α; 1 μM): 5351 pg/mL
- Human TNF-α concentration (Human TNF-α; 10 μM): 3244 pg/mL
- Human TNF-α concentration (Human TNF-α; 25 μM): 3489 pg/mL
- Human TNF-α concentration (Human TNF-α; 50 μM): 2440 pg/mL
